Source: patent publication US20230181602A1, “TREATMENT OF NON-ALCOHOLIC STEATOHEPATITIS (NASH)” (DURECT CORPORATION, priority 2020, published 2023)

Experiments:
[1] = Single dose safety and pharmacokinetic study in subjects with NASH and control healthy subjects; type: in vivo, human
Procedure: The present Example was a randomized, dose ranging, single dose safety and pharmacokinetic study of 25HC3S administered to subjects with NASH and control healthy subjects. […] For each cohort, 10 subjects with NASH were enrolled which were further classified into cirrhotic and non-cirrhotic. Each subject received only one dose of study treatment. The second cohort was dosed after a review of safety and tolerability data from Cohort 1.

[2] = Plasma pharmacokinetics of radioactivity after single intravenous dose in rats; type: in vivo, Sprague Dawley rats; conditions: 10 mg/kg single intravenous (bolus) dose
From the text: (§1) The objectives of this study were to determine the plasma pharmacokinetics of [4-^14C]-25HC3S-derived radioactivity in male Sprague Dawley rats, determine the routes of elimination and excretion mass balance of [4-^14C]-25HC3 S-derived radioactivity in male Sprague Dawley rats, determine the tissue distribution and tissue pharmacokinetics of [4-^14C]-25HC3S-derived radioactivity using quantitative whole body autoradiography methods in male Sprague Dawley and Long Evans rats following a single intravenous (bolus) dose, and to provide plasma, urine, and fecal homogenate samples for metabolite profiling of [4-^14C]-25HC3 S-derived radioactivity.
(§2) Nine male Sprague Dawley rats (Group 1) were designated for the pharmacokinetic phase, 3 male Sprague Dawley rats (Group 2) for the excretion mass balance phase, and 7 male Sprague Dawley rats (Group 3) and 9 male Long Evans rats (Group 4) for the tissue distribution phase. All animals received a single intravenous dose of [^14C]-25HC3S at 10 mg/kg and a target radioactivity of 225 μCi/kg. Blood samples were collected from all Group 1 animals at approximately 0.083, 0.25, 0.5, 1, 2, 4, 8, 12, 24, 48, and 72 hours post-dose. Urine and feces were collected from all Group 2 animals periodically through 168 hours post-dose. […] Following blood collection, animals were euthanized by CO2 inhalation and carcasses frozen in a dry ice/hexane bath for processing by quantitative whole body autoradiography. Whole blood, plasma, urine, feces, cage rinse, and cage wash were analyzed for total radioactivity by liquid scintillation counting.

[3] = Tissue distribution by quantitative whole body autoradiography after single intravenous dose; type: in vivo, Sprague Dawley rats; conditions: 10 mg/kg intravenous
From the text: as §1, §2

[4] = Plasma pharmacokinetics after single oral (gavage) dose in rats; type: in vivo; conditions: 75 mg/kg single oral (gavage) dose
Procedure: The terminal elimination phase T1/2 was 27.3 hours.

[5] = Excretion after single oral (gavage) dose in rats; type: in vivo; conditions: 75 mg/kg single oral (gavage) dose
[6] = Tissue distribution by quantitative whole body autoradiography after single oral (gavage) dose; type: in vivo, Sprague Dawley rats; conditions: 75 mg/kg oral
[7] = Metabolite profiling of plasma and feces after oral dose in rats; type: in vivo; conditions: 75 mg/kg oral
Procedure: Radiolabeled components in plasma and feces extracts were profiled and identified using radio-high performance liquid chromatography (HPLC) and high performance liquid chromatography/mass spectrometry (HPLC/MS) methods.
Plasma pools were prepared for Group 1 (75 mg/kg, [^14C]-25HC3S) samples collected at 2, 4, and 6 hours post-dose. […] One metabolite M29 was identified as 25-hydroxycholesterol with 37% ROI and a concentration of 1233 ng-equiv./g.
Feces pools were prepared for Group 2 (75 mg/kg, [^14C]-25HC3S) samples collected from 0 to 24, 24 to 48, 48 to 72, 72 to 96, 96 to 120, 120 to 144, and 144 to 168 hours post-dose. A total of eleven metabolites were identified. None of the metabolites were present at ≥5% of dose. Metabolites present at 2-5% of dose were M1 (4.5% of total dose and 1%-69% ROI), M3 (4.6% of total dose and 1%-44% ROI), M4 (2.0% of total dose and 0%-10% ROI), M8 (3.1% of total dose and 1%-46% ROI), […], and M30 (3.3% of total dose and 0%-5% ROI).

Compound: C[C@H](CCCC(C)(C)O)[C@H]1CC[C@H]2[C@@H]3CC=C4C[C@@H](OS(=O)(=O)[O-])CC[C@]4(C)[C@H]3CC[C@]12C.[Na+] [25HC3S sodium]
- difference between healthy and NASH subjects in pharmacokinetics (Cmax and AUC) ([1]; 50 mg and 200 mg): no clear difference
- increase of geometric mean Cmax in NASH subjects over healthy subjects ([1]; Cohorts 1 and 2): 18-24%
- increasing trends in exposure (AUC parameters) in NASH subjects ([1]; NASH versus healthy subjects): up to 31%

Compound: C[C@H](CCCC(C)(C)O)[C@H]1CC[C@H]2[C@@H]3CC=C4[14CH2][C@@H](OS(=O)(=O)O)CC[C@]4(C)[C@H]3CC[C@]12C [[4-^14C]-25HC3S]
- mean plasma C0 (radioactivity) [2]: 25,900 ng-equiv./g
- plasma AUClast (radioactivity) [2]: 27,900 h*ng-equiv./g
- terminal elimination phase T1/2, plasma [2]: 26.6 h
- AUClast in liver [3]: ≤ 364,000 h·ng/g
- concentrations in thymus, bone (femur), uveal tract, fat, testes, and brain (approximate) [3]: around 1500 ng-equiv./g
- concentrations in thymus, bone (femur), uveal tract, fat, testes, and brain (bound) [3]: < 5000 ng-equiv./g
- tissue concentrations by 168 hours postdose [3]: below quantitation limit in all tissues except adrenal gland, harderian gland, liver, and small intestine
- tissue:plasma ratio (AUClast), liver [3]: 11.4
- tissue:plasma ratio (AUClast), small intestine (wall) [3]: 7.44
- tissue distribution of drug and/or its metabolites ([3]; Group 3): broadly distributed and detected by quantitative whole body autoradiography in all tissues except the eye (lens)
- plasma AUClast (radioactivity) [4]: 96,400 h·ng equiv./g
- terminal elimination phase T1/2 [4]: 27.3 h
- dose recovered in urine, feces, and cage rinse [5]: approximately 94.5%
- recovered radioactivity in feces [5]: 94.2%
- plasma:whole blood AUClast ratio [6]: 1.12
- skin, thymus, prostate, and pituitary tissue concentrations [6]: < 3000 ng equiv./g
- tissue Tmax [6]: ≤ 6 h
- tissue concentrations by 168 hours post-dose [6]: near or below the quantitation limit in all tissues except adrenal gland and liver
- tissue distribution of drug and/or its metabolites [6]: broadly distributed and detected by quantitative whole body autoradiography in all tissues except the eye (lens)
- tissue:plasma ratio (AUClast), adrenal gland [6]: 6.64
- tissue:plasma ratio (AUClast), liver [6]: 6.96
- tissue:plasma ratio (AUClast), small intestine (wall) [6]: 15.4
- uveal tract and brain concentrations [6]: approximately 1000 ng equiv./g
- whole blood AUClast [6]: 127,000 h·ng equiv./g

Compound: desmosterol sulfate
- presence in plasma or feces samples [7]: not found
